From ChEMBL document CHEMBL1201862, “PubChem BioAssay data set” (2004) come the findings set out here.

For one test, the target named is Kallikrein-7 (Homo sapiens, UniProt P49862). Description: Fluorescence Intensity-based biochemical primary high throughput dose response assay to identify activators of kallikrein-7 (K7) zymogen.
Test [1] can be described thus: EDANS-DABCYL fluorescence interference, concentration series, dose response, artefact control for kallikrein-7 zymogen activator project, biochemical, fluorescence intensity, triplicate (AID 720493).
The nature of test [2]: cells. It counts as functional, cell-based.
The target in test [3] is Nuclear receptor subfamily 0 group B member 1 (Homo sapiens, UniProt P51843). It counts as functional, cell-based.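 Further: HEK293T cells transfected with SF-1 and DAX-1 plus StAR promoter luciferase reporter.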
Test [4] addresses Fructose-bisphosphate aldolase (Mycobacterium tuberculosis, UniProt P9WQA3). The test is described as follows: Fluorescence-based biochemical high throughput dose response assay for inhibitors of the fructose-bisphosphate aldolase (FBA) of M. tuberculosis. It counts as functional.
A short description of test [5]: cells. It counts as functional, cell-based. This is another data set of the same source.
Test [6] addresses T1, Trace amine-associated receptor 1 (Homo sapiens, UniProt Q96RJ0). The test is described as follows: Fluorescence-based cell-based high throughput dose response assay to identify agonists of the human trace amine associated receptor 1 (TAAR1). It counts as functional.
In test [7] the target is T1, Trace amine-associated receptor 1. Description: Counterscreen for agonists of the human trace amine associated receptor 1 (hTAAR1): Fluorescence-based cell-based high throughput dose response assay to identify hTAAR1 agonist that also desensitize TAAR1 receptor response. It counts as functional. (In general: A counterscreen serves to expose hits that act by an unwanted route or on another target.)

A short description of test [8]: cells. Type of test: functional, cell-based. This is another data set of the same source.
A further test concerns the target Major prion protein (Homo sapiens, UniProt P04156). Type of test: functional, cell-based.
Test [9] in a line: cells.
A further test deals with SUMO-activating enzyme (Homo sapiens, UniProt Q9UBT2). Description: SUMOylation inhibitor hit validation, confirmation, SUMOylation inhibitor project, biochemical, AlphaScreen (AID 2018). It counts as functional.
Test [10] is described as follows: inhibitors of HIV Env-driven cell fusion, dose response, cherry-pick (AID 652057). Type of test: functional, cell-based.
Test [11] is described as follows: CEM21 lymphoblast cell cytotoxicity, dose response, cytotoxicity control for viral fusion inhibitor project, CellTiter-Glo luminescence, cherry-picked (AID 652042).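 Further: potency for signal decrease meaning cytotoxicity.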 It counts as functional, cell-based.
Test [12] is described as follows: ZM109 Env clade C HIV-1 fusion inhibitors, dose response, HeLa effector, CEM target cells, luciferase, cherry-pick (AID 652058). It counts as functional, cell-based.
Test [13] can be described thus: off-target signal loss in HeLa-CEM21 co-culture – HeLa F-luc CTL cells, cherry-picked, counter-screen for HIV-1 Env fusion inhibitor project, dose response (AID 652040).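 Further: potency for signal decrease marking cytotoxic or nonspecific inhibition.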 It counts as functional, cell-based.
Test [14] is described as follows: inhibitors of clade B AD8 Env fusion, dose response, cell-based, cherry-pick (AID 652062).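 Further: luciferase signal from cell-cell fusion driven by HIV-1 clade B AD8 Env; potency is for inhibitors of fusion seen as a drop in luminescence.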 Type of test: functional.
Test [15] in a line: Late stage assay provider results from the probe development effort to identify selective inhibitors of heat shock protein 90 (HSP90): Absorbance-based cell proliferation assay in SKBR3 cells. Type of test: functional. The conditions noted are these: SK-BR-3.
Test [16] in a line: Late stage assay provider results from the probe development effort to identify selective inhibitors of heat shock protein 90 (HSP90): Absorbance-based cell proliferation assay in MCF7 cells. Type of test: functional.
The subject of test [17] is HEK293. Description: cells. As to conditions: Homo sapiens.
Test [18] deals with HEK293. The test is described as follows: cells. As to conditions: Homo sapiens. This is another data set of the same source.
Test [19] is described as follows: Late stage assay provider results from the probe development effort to identify inhibitors of the Plasmodium falciparum M17 Leucine Aminopeptidase (M17LAP): radiolabel-based cell-based dose response assay to identify compounds that inhibit P. falciparum growth in RBCs Set 2. It counts as functional.

A word on the EC50: it is the concentration needed to bring the measured effect to its halfway point. What is called IC50 is the point on the concentration scale where inhibition reaches its midpoint. Usually AC50 stands for the midpoint of the concentration-response curve, whichever way the signal moves.

The source made the active and inactive calls.

Regarding `CCOC(=O)c1c(N)n(CCN2CCCCC2)c2nc3ccccc3nc12`, the 50% effective concentration (EC50) is 3.62 µM (active) at Kallikrein-7 and > 2.58 µM (active) in test [1].

In the case of `O=C(COc1ccccc1)Nc1cccc(-c2ccc(N3CCOCC3)nn2)c1`, the IC50 (in “cells [2]”; in test [3]) was > 67.5 µM (inactive) each time.

Consider `COC(=O)C1=CN(Cc2ccc(F)cc2)C=C(C(=O)OC)C1c1cc(OC)c(OC)c(OC)c1`, for which the concentration for half-maximal inhibition (IC50) in [4] was 1.65 µM (active).

For the molecule `O=C(NCCc1cccs1)C1CC(c2cccc(F)c2)=NO1` (configuration not stated), the IC50 is > 29.9 µM (inactive) in the test “cells [5]” and 2.6 µM (active) in test [7]. For the same molecule, the results for the EC50 (in test [6]; in “cells [8]”) were 13.7 µM (inactive) and > 29.9 µM (inactive), respectively.

In the case of `Cc1ccc(S(=O)(=O)N2CCCCC2)cc1NC(=O)CSc1ncnc2ccccc12`, the IC50 on Major prion protein is 5.6 µM (active); in the test “cells [9]”, > 138 µM (inactive).

`Cc1ccc(C)c(OCC(=O)Nc2nonc2NC(=O)COc2cc(C)ccc2C)c1`: the half-inhibitory concentration (IC50) at SUMO-activating enzyme is 45.4 µM (active). Also, the half-maximal activity concentration (AC50) in [10] is 2.68 µM (active); in [11], 25.4 µM (active); in test [12] it was 1.4 µM (active); in test [13], 6.79 µM (active); in [14], 4.31 µM (active).

As for `O=C(NCCc1ccc(F)cc1)c1coc(=O)c(Br)c1`, the values for the IC50 in test [15] and in [16] were 5.3 µM (active) and 2.1 µM (active), respectively. Further, the EC50 in the test with HEK293 [17] and with HEK293 [18] was > 59.7 µM (inactive) in each case.

For the molecule `O=C(NO)c1ccc2ccccc2c1`, in test [19], the IC50 is 15.7 µM (inactive).
